In article PMC6631349 (Xenobiotica; the fate of foreign compounds in biological …, 2014):
Where two headings read alike, the source gives them in different places.

Key:
UGT1A9 = target: T1, UGT1A9 (Homo sapiens, UniProt O60656); assay: UGT1A9 supersomes-catalyzed 4-MU glucuronidation inhibition; settings: for residual activity 1A9: recombinant human UGT, mean of triplicate
T1 sequence (O60656 26-530): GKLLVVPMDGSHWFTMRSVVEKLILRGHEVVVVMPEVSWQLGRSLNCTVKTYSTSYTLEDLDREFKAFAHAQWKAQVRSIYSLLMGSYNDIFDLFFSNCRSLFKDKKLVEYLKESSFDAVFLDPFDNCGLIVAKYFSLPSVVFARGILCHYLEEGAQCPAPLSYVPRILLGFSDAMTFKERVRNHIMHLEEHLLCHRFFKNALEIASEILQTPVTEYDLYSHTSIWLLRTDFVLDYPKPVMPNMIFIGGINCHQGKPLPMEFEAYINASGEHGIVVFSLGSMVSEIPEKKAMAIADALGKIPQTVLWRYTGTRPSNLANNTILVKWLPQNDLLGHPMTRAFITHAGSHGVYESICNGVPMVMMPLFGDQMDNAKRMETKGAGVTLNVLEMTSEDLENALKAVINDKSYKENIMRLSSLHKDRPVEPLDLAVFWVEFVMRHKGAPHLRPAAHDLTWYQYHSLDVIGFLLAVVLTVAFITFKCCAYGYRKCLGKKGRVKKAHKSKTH

UGT1A8 = target: T2, UGT1A8 (Homo sapiens, UniProt Q9HAW9); settings: recombinant human UGT, mean of triplicate
T2 sequence (Q9HAW9 26-530): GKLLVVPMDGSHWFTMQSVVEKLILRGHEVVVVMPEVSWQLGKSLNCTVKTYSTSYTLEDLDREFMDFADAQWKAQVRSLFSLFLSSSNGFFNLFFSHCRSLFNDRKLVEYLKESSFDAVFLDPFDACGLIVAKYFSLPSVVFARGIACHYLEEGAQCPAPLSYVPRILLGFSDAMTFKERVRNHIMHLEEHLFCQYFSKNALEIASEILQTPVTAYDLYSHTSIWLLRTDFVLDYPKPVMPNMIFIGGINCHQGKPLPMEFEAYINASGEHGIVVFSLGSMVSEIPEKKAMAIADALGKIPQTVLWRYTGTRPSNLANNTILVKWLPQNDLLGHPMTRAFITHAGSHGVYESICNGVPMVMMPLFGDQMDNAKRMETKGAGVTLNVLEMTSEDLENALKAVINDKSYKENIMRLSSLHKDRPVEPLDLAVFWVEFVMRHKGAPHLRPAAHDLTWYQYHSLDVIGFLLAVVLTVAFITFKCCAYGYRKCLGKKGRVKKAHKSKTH

UGT1A7 = target: T3, UGT1A7 (Homo sapiens, UniProt Q9HAW7); assay: UGT1A7 supersomes-catalyzed 4-MU glucuronidation inhibition; settings: recombinant human UGT, mean of triplicate
T3 sequence (Q9HAW7 26-530): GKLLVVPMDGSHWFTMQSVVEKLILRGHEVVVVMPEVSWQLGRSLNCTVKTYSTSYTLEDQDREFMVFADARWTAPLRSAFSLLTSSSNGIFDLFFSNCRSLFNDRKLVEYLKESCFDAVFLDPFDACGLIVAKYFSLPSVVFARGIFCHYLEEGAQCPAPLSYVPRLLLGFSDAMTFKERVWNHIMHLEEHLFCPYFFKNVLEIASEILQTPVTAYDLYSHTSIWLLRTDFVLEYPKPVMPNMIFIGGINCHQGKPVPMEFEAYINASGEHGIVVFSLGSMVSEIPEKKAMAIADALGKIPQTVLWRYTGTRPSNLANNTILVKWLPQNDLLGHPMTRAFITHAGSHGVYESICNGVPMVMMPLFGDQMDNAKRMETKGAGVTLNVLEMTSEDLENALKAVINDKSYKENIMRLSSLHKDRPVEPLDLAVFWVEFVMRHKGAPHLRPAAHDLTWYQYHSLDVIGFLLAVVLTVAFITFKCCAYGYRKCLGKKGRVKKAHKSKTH

Row | Compound | residual activity 1A9 (UGT1A9; 50 μM PC components) [%] | residual activity 1A8 (UGT1A8; 50 μM PC components) [%] | residual activity 1A7 (UGT1A7; 50 μM PC components) [%] | inhibition percentage of UGT1A9 activity (UGT1A9; 50 μM) [%] | residual activity 1A9 (UGT1A9; 50 μM LPC components) [%] | residual activity 1A8 (UGT1A8; 50 μM LPC components) [%] | residual activity 1A7 (UGT1A7; 50 μM LPC components) [%]
1 | CCCCCCCCCCCCC(=O)OC[C@H](COP(=O)([O-])OCC[N+](C)(C)C)OC(=O)CCCCCCCCCCCC [PC 13:0, 13:0] | 99.2 | 114.3 | 160.6 |  |  |  | 
2 | CCCCCCCCCCC(=O)OC[C@H](COP(=O)([O-])OCC[N+](C)(C)C)OC(=O)CCCCCCCCCC [PC 11:0, 11:0] | 97.8 | 116.8 | 175.5 |  |  |  | 
3 | CCCCCCCCC(=O)OC[C@H](COP(=O)([O-])OCC[N+](C)(C)C)OC(=O)CCCCCCCC [PC 9:0, 9:0] | 10.7 | 33.2 | 137 | 89.3 |  |  | 
4 | CCCCCCCCCC(=O)OC[C@H](COP(=O)([O-])OCC[N+](C)(C)C)OC(=O)CCCCCCCCC [PC 10:0, 10:0] | 158 | 59.3 | 163.2 |  |  |  | 
5 | CCCCCCCC(=O)OCC(O)COP(=O)([O-])OCC[N+](C)(C)C (stereo not shown) [LPC 8:0] |  |  |  |  | 99.6 | 102.7 | 133.3
6 | CCCCCCCCCCCCCCCCCCCCCC(=O)OC[C@H](COP(=O)([O-])OCC[N+](C)(C)C)OC(=O)CCCCCCCCCCCCCCCCCCCCC [PC 22:0, 22:0] | 43.9 | 38.0 | 86.2 |  |  |  | 
7 | CCCCCC(=O)OC[C@@H](O)COP(=O)([O-])OCC[N+](C)(C)C [LPC 6:0] |  |  |  |  | 95.9 | 108.0 | 130.6
8 | CCCCCCC(=O)OCC(O)COP(=O)([O-])OCC[N+](C)(C)C (stereo not shown) [LPC 7:0] |  |  |  |  | 92.9 | 101.1 | 138.3
9 | CCCCCCCCCCCCCCC(=O)OC[C@H](COP(=O)([O-])OCC[N+](C)(C)C)OC(=O)CCCCCCCCCCCCCC [PC 15:0, 15:0] | 64.7 | 105.9 | 172.7 |  |  |  | 
10 | CCCCCCCCCCC(=O)OC[C@@H](O)COP(=O)([O-])OCC[N+](C)(C)C [LPC 11:0] |  |  |  |  | 104.6 | 124.0 | 149.9
11 | CCCCCCCC(=O)OC[C@H](COP(=O)([O-])OCC[N+](C)(C)C)OC(=O)CCCCCCC [PC 8:0, 8:0] | 180.5 | 78.3 | 114.8 |  |  |  | 
12 | CCCCCCCCC(=O)OC[C@@H](O)COP(=O)([O-])OCC[N+](C)(C)C [LPC 9:0] |  |  |  |  | 94.5 | 101.2 | 134.9
13 | CCCCCCCCCCCC(=O)OC[C@@H](O)COP(=O)([O-])OCC[N+](C)(C)C [LPC 12:0] |  |  |  |  | 89.2 | 89.2 | 138.6
14 | CCCCCCCCCCCCCCCCCCCCC(=O)OC[C@H](COP(=O)([O-])OCC[N+](C)(C)C)OC(=O)CCCCCCCCCCCCCCCCCCCC [PC 21:0, 21:0] | 38.1 | 36.9 | 122.0 |  |  |  | 
15 | CCCCCCCCCCCCCCCCCCC(=O)OC[C@H](COP(=O)([O-])OCC[N+](C)(C)C)OC(=O)CCCCCCCCCCCCCCCCCC [PC 19:0, 19:0] | 42.3 | 60.6 | 135.5 |  |  |  | 
16 | CCCCCCCCCC(=O)OC[C@@H](O)COP(=O)([O-])OCC[N+](C)(C)C [LPC 10:0] |  |  |  |  | 99.2 | 100.7 | 139.8
17 | CCCCCCCCCCCCCC(=O)OC[C@H](COP(=O)([O-])OCC[N+](C)(C)C)OC(=O)CCCCCCCCCCCCC [PC 14:0, 14:0] | 86.3 | 110.2 | 162.3 |  |  |  | 
18 | CCCCCCCCCCCCCCCC(=O)OC[C@H](COP(=O)([O-])OCC[N+](C)(C)C)OC(=O)CCCCCCCCCCCCCCC [PC 16:0, 16:0] | 67.5 | 107.6 | 155.2 |  |  |  | 
19 | CCCCCCCCCCCC(=O)OC[C@H](COP(=O)([O-])OCC[N+](C)(C)C)OC(=O)CCCCCCCCCCC [PC 12:0, 12:0] | 84.1 | 114.1 | 171.4 |  |  |  | 
20 | CCCCCCCCCCCCCCCCCC(=O)OC[C@H](COP(=O)([O-])OCC[N+](C)(C)C)OC(=O)CCCCCCCCCCCCCCCCC [PC 18:0, 18:0] | 67.7 | 84.1 | 139.9 |  |  |  | 
21 | CCCCCCCCCCCCCCCCCCCC(=O)OC[C@H](COP(=O)([O-])OCC[N+](C)(C)C)OC(=O)CCCCCCCCCCCCCCCCCCC [PC 20:0, 20:0] | 65.6 | 94.9 | 125.5 |  |  |  | 
22 | CCCCCCC(=O)OC[C@H](COP(=O)([O-])OCC[N+](C)(C)C)OC(=O)CCCCCC [PC 7:0, 7:0] | 137.7 | 106.1 | 150.2 |  |  |  | 
23 | CCCCCCCCCCCCC(=O)OC[C@@H](O)COP(=O)([O-])OCC[N+](C)(C)C [LPC 13:0] |  |  |  |  | 99.4 | 101.6 | 120.1
24 | CCCCCC(=O)OC[C@H](COP(=O)([O-])OCC[N+](C)(C)C)OC(=O)CCCCC [PC 6:0, 6:0] | 96.1 | 116.2 | 166.0 |  |  |  | 
25 | CCCCCCCCCCCCCC(=O)OC[C@@H](O)COP(=O)([O-])OCC[N+](C)(C)C [LPC 14:0] |  |  |  |  | 97.5 | 19.2 | 153.6
26 | CCCCCCCCCCCCCCCCC(=O)OC[C@H](COP(=O)([O-])OCC[N+](C)(C)C)OC(=O)CCCCCCCCCCCCCCCC [PC 17:0, 17:0] | 65.7 | 92.1 | 138.9 |  |  |  | 
27 | CCCCCCCCCCCCCCCCCCCCCCC(=O)OC[C@H](COP(=O)([O-])OCC[N+](C)(C)C)OC(=O)CCCCCCCCCCCCCCCCCCCCCC [PC 23:0, 23:0] | 77.3 | 93.5 | 118.8 |  |  |  | 
